Data on one compound can be found in patent US6846670B2, “Genetically engineered herpes virus for the treatment of cardiovascular disease” (priority 2000, dated 2005).

For data set [1], the system named is established HSV-1 infection. Description: Eradication of established R849 infection with Acyclovir in rabbit vein patch. Type of data set: in vivo. An excerpt: (§1) Its mechanism of action is believed to include penetration intracellularly, conversion initially to the monophosphate by viral thymidine kinases, then to the diphosphate by cellular guanylate kinase and, finally, to the triphosphate by various other cellular enzymes. Fully active Acyclovir triphosphate competes with the natural substrate, deoxyguanosine triphosphate, for a position in the DNA chain of the herpes virus. Once incorporated, it terminates DNA synthesis via (1) competitive inhibition of viral DNA polymerase, (2) incorporation into, and termination of, the growing viral DNA chain, and (3) inactivation of the viral DNA polymerase. Uninfected cells show only minimal uptake and phosphorylation of Acyclovir. The HSV strains used in this example retain tk activity and are thus highly susceptible to neutralization by Acyclovir. To test whether an established HSV-1 infection could be eradicated after completion of the desired therapeutic effect (of the recombinant HSV) in vivo, a rabbit model was used. […] Baseline serum Acyclovir, electrolyte, blood urea nitrogen, and creatinine levels were measured before initiation of Acyclovir treatment, on days 2, 5, and 10 after initiation of treatment, and at sacrifice. […]

Data set [2] is described as follows: Serum Acyclovir level and serum chemistry during Acyclovir therapy. Type of data set: in vivo, rabbit.
Excerpt: as §1

The test system of data set [3] is umbilical artery smooth muscle cells (UASMCs). Description: MTT assay of UASMC viability following viral exposure and Acyclovir rescue. It counts as cell-based, human. As to conditions: UASMCs infected with R849 MOI=25, even with 10 μg/ml Acyclovir. An excerpt: A modified colorimetric assay based on the selective ability of living cells to reduce the yellow salt MTT (3-[4,5-dimethylthiozol-2-yl]-2,5 diphenyl tetrazolium bromide; Sigma Chemical Co.) to formazan was used to quantitate HUVEC and UASMC viability following viral exposure and rescue with Acyclovir (Abbott Laboratories).
For orientation: Tetrazolium dyes change colour on reduction, which living cells bring about.

The test system of data set [4] is human umbilical vein endothelial cells (HUVECs). Briefly: MTT assay of HUVEC viability following viral exposure. It counts as cell-based. As for the experimental part:
To determine the appropriate dose for vascular gene transfer, human umbilical vein endothelial cells (HUVECs) were contacted with graded concentrations of HSV-1 for 120 min and viability was assessed using a standard 72 hr MTT assay, as described below.
Human umbilical vein endothelial cells (HUVECs; BioWhittaker/Clonetics) were suspended in complete medium EBM-2 (BioWhittaker #CC3 156) and singlequots of EGM-2 (#CC4176) and grown to 100% confluence in P75 flasks in a 37° C. incubator with humidified 5% CO2 For the passage of cells, all reagent pack contents (HBSS, Trypsin/EDTA, TNS; BioWhittaker CC-5034) were thawed in a 37° C. water bath and exhausted media was removed and discarded. HUVECs were washed with enough HBSS to cover them, trypsin/EDTA was added, and flasks were gently agitated under an inverted microscope. […]
A modified colorimetric assay based on the selective ability of living cells to reduce the yellow salt MTT (3-[4,5-dimethylthiozol-2-yl]-2,5 diphenyl tetrazolium bromide; Sigma Chemical Co.) to formazan was used to quantitate HUVEC viability following viral exposure. […] The formazan crystals were then dissolved in 0.1 ml DMSO (Sigma) and the absorbance measured at 515 nm using a microplate spectrophotometer (SpectraMax 340 004) interfaced with a personal computer (Apple Macintosh). This process was repeated after 72 hours and relative cell survival was calculated. […]

Consider `Nc1nc2c(ncn2COCCO)c(=O)[nH]1` [Acyclovir, 12-amino-1,9-dihydro-9-[(2-hydroxy-ethoxy)methyl]-6H-purin-6-one], for which, in data set [1] (R849 4×10^8 pfu/ml vein patch, Acyclovir 75 mg/kg iv five days from week 1 plus oral, harvest at four weeks), the “cells with β-galactosidase activity after Acyclovir treatment” value was less than 1%. The “patency of treated vein patches after eradication of R849 infection” value in data set [1] (four weeks) is listed as “remained widely patent”. Also, in data set [2] (during Acyclovir therapy, rabbits), the “serum levels of Acyclovir” value was determined as 9000 ± 4000 ng/mL. In addition, the “systemic toxicity by serum electrolytes, blood urea nitrogen and creatinine” value in data set [2] (throughout the study, rabbits with R849-infected patches on Acyclovir) is “no significant systemic toxicity”. Further, the “rescue of infected cells with Acyclovir” value in data set [3] was “could not be rescued”. For the same compound, the “relative 72 hr cell survival with Acyclovir” value in data set [4] (HUVECs infected with R849 MOI=25, Acyclovir 0.25 μg/ml) came to 45±5%; in data set [4] (HUVECs infected with R849 MOI=25, Acyclovir 0.5 μg/ml), 85±9%.
